Experimental data reported in patent US20230381155A1, “TREATMENT OF BREAST CANCER USING COMBINATION THERAPIES COMPRISING GDC-9545 AND GDC-0077” (Genentech, Inc., priority 2021, published 2023).
“Also recorded” adds a separate entry of the source.

What was measured:
[1] = system: pAkt, pPRAS40, pS6RP; experiment: downstream PI3K pathway markers; settings: nonclinical studies
[2] = system: mutant p110a; experiment: degradation of mutant p110a; format: cell-based; settings: nonclinical studies
From the text: Without being bound by any particular theory, GDC-0077 appears to exert its activity by binding to the adenosine binding site of p110a, thereby inhibiting the phosphorylation of membrane-bound phosphatidylinositol 4,5-bisphosphate (PIP2) to phosphatidylinositol 3,4,5-trisphophate (PIP3). This inhibition decreases downstream activation of pathway effectors including Akt and S6RP, resulting in decreased cellular proliferation, metabolism, and angiogenesis.

[3] = system: other Class I PI3Ks, including the β, δ, and γ isoforms; experiment: biochemical inhibition of other Class I PI3Ks; settings: δ, and γ isoforms versus PI3K-α
[4] = system: human breast cancer xenograft models harboring PIK3CA mutations; experiment: tumor growth in breast cancer xenograft models; format: in vivo; settings: nonclinical studies
[5] = system: patients with measurable disease; experiment: clinical study of single agent GDC-0077, RECIST v1.1 response; format: in vivo, human; settings: among 20 patients
From the text: In one study using single agent administration of GDC-0077, among 20 patients with measurable disease treated with a 6-mg, 9-mg, or 12-mg QD starting dose of GDC-0077 as a single agent, 5 patients (25%) achieved PRs, while 9 patients (45%) achieved clinical benefit (defined as the percentage of patients achieving confirmed Response Evaluation Criteria in Solid Tumors, Version 1.1 [RECIST v1.1]-defined CR, PR, and/or SD [non-complete response/non-progressive disease for patients with non-measurable disease at baseline] for 24 weeks). Further, 14 of the 20 patients were enrolled at the 6-mg or 9-mg QD starting dose, and 3 patients had received prior treatment with a CDK4/6i.

[6] = system: PIK3CA-mutant breast cancer cell lines; experiment: proliferation and apoptosis in PIK3CA-mutant breast cancer cell lines; format: cell-based; settings: nonclinical studies
[7] = system: tumor cells bearing mutant p110a; experiment: potency in tumor cells, mutant versus wild-type p110a; format: cell-based
[8] = system: ESR1 wildtype T-47D (PIK3CA.H1047R) cells; experiment: CyQUANT relative viability, T-47D wildtype ESR1; format: cell-based; settings: 300 nM GDC-9545, 80 nM GDC-0077, alone or combined; 0.1 nmol/L E2; 6 to 8 days
Protocol: Combination of GDC-9545 and GDC-007 was investigated and compared to efficacy of each single agent and to an AI+palbociclib control. ESR1 wildtype MCF-7 (PIK3CA.E545K) and T-47D (PIK3CA.H1047R) cells, and engineered ESR1 mutant cells [MCF-7.ER.Y537S, T-47D.ER.D538G] were grown under standard cell culture conditions in RPMI media with 10% fetal bovine serum. One day prior to the addition of drugs, cells were seeded in 384-well plates in phenol red-free RPMI with 10% charcoal-stripped fetal bovine serum in order to deprive the cells of hormones. Single agent 300 nM GDC-9545, 80 nM GDC-0077, 125 nM palbociclib or a combination thereof, were tested in quadruplicate in the presence of 0.1 nmol/L estradiol (E2) during a 6-day or 8-day incubation period. The absence of E2 in the media (−E2) serves to mimic treatment with an Aromatase Inhibitor (AI). The combination of E2 withdrawal plus palbociclib—reflecting the current standard of care for metastatic breast cancer—was included. Drug concentrations of GDC-0077 and palbociclib were chosen to be clinically relevant, based on human exposures. […] The relative number of viable cells at the 6/8-day timepoint was determined by CyQUANT (ThermoFisher, C7026).

[9] = target: Class I alpha isoform of phosphatidylinositol 3-kinase (PI3K-α) (Homo sapiens, UniProt P42336); experiment: biochemical inhibition of PI3K-α
[10] = system: ER+ breast cancer xenograft models; experiment: xenograft models, efficacy versus fulvestrant; format: in vivo; settings: fulvestrant dosed according to a clinically relevant dosing scheme
[11] = system: frontline patients; settings: NCT01602380; cited from earlier work
[12] = target: T1, ER (Homo sapiens, UniProt P03372); experiment: competition with estrogens for binding to the ER
T1 sequence (P03372 1-595): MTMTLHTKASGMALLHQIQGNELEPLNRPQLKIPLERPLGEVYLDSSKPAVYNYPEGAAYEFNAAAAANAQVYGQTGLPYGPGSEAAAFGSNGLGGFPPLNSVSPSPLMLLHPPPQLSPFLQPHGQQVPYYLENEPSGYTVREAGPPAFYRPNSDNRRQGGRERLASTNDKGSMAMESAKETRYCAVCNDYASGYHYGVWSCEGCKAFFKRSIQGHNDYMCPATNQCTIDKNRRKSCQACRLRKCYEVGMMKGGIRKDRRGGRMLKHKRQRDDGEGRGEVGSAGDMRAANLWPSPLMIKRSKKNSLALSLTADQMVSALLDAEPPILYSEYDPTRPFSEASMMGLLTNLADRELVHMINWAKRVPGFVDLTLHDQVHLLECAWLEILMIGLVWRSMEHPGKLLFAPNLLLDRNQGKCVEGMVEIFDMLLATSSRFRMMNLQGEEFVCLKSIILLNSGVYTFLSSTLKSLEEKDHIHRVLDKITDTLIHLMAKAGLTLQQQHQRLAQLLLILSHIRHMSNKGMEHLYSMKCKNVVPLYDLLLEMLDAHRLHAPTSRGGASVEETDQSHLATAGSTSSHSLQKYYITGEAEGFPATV

[13] = system: ESR1 wildtype MCF-7 (PIK3CA.E545K) cells; experiment: CyQUANT relative viability, MCF-7 wildtype ESR1; format: cell-based; settings: 300 nM GDC-9545, 80 nM GDC-0077, alone or combined; 0.1 nmol/L E2; 6 to 8 days
Protocol: (§1) Cells were treated as shown for 6 to 8 days, and relative viability was assessed. *p<0.0001, parametric t-test.
ESR1 wildtype MCF-7 (PIK3CA.E545K) and T-47D (PIK3CA.H1047R) cells, and engineered ESR1 mutant cells [MCF-7.ER.Y537S, T-47D.ER.D538G] were grown under standard cell culture conditions in RPMI media with 10% fetal bovine serum. One day prior to the addition of drugs, cells were seeded in 384-well plates in phenol red-free RPMI with 10% charcoal-stripped fetal bovine serum in order to deprive the cells of hormones. Single agent 300 nM GDC-9545, 80 nM GDC-0077, 125 nM palbociclib or a combination thereof, were tested in quadruplicate in the presence of 0.1 nmol/L estradiol (E2) during a 6-day or 8-day incubation period. The absence of E2 in the media (−E2) serves to mimic treatment with an Aromatase Inhibitor (AI). The combination of E2 withdrawal plus palbociclib—reflecting the current standard of care for metastatic breast cancer—was included. […] The relative number of viable cells at the 6/8-day timepoint was determined by CyQUANT (ThermoFisher, C7026).

[14] = human steady-state total drug exposure, GDC-9545 versus fulvestrant; format: in vivo; settings: GDC-9545 30 mg QD versus fulvestrant 500 mg IM monthly
[15] = system: T-47D.ER.D538G cells; experiment: CyQUANT relative viability, T-47D.ER.D538G; format: cell-based; settings: 300 nM GDC-9545, 80 nM GDC-0077, alone or combined; 0.1 nmol/L E2; 6 to 8 days
Protocol: as §1

[16] = system: ER, wild-type and ESR1-mutant contexts; experiment: in vitro cell and biochemical assays, potency versus fulvestrant
[17] = oral bioavailability; settings: in vivo
[18] = system: ER+ breast cancer models of ESR1-wild type and ESR1-mutation-bearing disease; experiment: nonclinical activity in ER+ breast cancer models
[19] = system: MCF-7.ER.Y537S cells; experiment: CyQUANT relative viability, MCF-7.ER.Y537S; format: cell-based; settings: 300 nM GDC-9545, 80 nM GDC-0077, alone or combined; 0.1 nmol/L E2; 6 to 8 days
Protocol: as §1
One day prior to the addition of drugs, cells were seeded in 384-well plates in phenol red-free RPMI with 10% charcoal-stripped fetal bovine serum in order to deprive the cells of hormones. Single agent 300 nM GDC-9545, 80 nM GDC-0077, 125 nM palbociclib or a combination thereof, were tested in quadruplicate in the presence of 0.1 nmol/L estradiol (E2) during a 6-day or 8-day incubation period. The absence of E2 in the media (−E2) serves to mimic treatment with an Aromatase Inhibitor (AI). The combination of E2 withdrawal plus palbociclib—reflecting the current standard of care for metastatic breast cancer—was included. Drug concentrations of GDC-0077 and palbociclib were chosen to be clinically relevant, based on human exposures. 300 nM GDC-9545 is a saturating concentration that is lower than the human dose equivalent of 30 mg. The relative number of viable cells at the 6/8-day timepoint was determined by CyQUANT (ThermoFisher, C7026).

[20] = format: in vitro ADME
[21] = 6-mg, 9-mg, or 12-mg QD starting dose, single agent
[22] = CR, PR and/or SD for 24 weeks, RECIST v1.1

Class I alpha isoform of phosphatidylinositol 3-kinase (PI3K-α), sequence (P42336 whole entry, canonical isoform): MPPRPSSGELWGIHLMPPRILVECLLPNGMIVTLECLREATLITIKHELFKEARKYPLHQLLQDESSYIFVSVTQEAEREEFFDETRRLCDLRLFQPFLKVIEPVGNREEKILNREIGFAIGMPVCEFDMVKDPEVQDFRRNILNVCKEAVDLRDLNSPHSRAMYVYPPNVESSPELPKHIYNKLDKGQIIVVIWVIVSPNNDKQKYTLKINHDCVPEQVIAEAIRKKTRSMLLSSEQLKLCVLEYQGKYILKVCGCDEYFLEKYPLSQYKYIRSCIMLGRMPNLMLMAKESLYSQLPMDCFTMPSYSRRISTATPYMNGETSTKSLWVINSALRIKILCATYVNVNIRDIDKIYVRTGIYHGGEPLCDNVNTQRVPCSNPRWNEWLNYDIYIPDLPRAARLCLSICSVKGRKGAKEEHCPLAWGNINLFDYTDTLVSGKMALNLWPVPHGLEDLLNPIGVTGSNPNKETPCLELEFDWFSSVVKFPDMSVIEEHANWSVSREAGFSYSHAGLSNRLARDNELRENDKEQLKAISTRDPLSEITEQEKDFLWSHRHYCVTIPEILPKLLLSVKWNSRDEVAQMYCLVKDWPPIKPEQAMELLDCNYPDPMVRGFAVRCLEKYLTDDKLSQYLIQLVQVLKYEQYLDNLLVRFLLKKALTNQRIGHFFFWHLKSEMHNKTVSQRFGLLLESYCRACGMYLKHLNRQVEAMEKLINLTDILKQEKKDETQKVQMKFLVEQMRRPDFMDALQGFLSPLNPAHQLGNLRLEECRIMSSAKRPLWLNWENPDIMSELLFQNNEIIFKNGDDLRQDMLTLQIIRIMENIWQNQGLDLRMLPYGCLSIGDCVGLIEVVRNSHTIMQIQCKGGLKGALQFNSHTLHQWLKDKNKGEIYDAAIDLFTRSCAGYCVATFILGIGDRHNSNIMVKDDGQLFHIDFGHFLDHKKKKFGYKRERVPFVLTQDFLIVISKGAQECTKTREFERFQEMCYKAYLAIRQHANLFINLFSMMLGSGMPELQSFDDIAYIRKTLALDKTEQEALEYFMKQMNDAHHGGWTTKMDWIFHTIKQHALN
Class I alpha isoform of phosphatidylinositol 3-kinase (PI3K-α), sequence (P27986 whole entry partner, canonical isoform): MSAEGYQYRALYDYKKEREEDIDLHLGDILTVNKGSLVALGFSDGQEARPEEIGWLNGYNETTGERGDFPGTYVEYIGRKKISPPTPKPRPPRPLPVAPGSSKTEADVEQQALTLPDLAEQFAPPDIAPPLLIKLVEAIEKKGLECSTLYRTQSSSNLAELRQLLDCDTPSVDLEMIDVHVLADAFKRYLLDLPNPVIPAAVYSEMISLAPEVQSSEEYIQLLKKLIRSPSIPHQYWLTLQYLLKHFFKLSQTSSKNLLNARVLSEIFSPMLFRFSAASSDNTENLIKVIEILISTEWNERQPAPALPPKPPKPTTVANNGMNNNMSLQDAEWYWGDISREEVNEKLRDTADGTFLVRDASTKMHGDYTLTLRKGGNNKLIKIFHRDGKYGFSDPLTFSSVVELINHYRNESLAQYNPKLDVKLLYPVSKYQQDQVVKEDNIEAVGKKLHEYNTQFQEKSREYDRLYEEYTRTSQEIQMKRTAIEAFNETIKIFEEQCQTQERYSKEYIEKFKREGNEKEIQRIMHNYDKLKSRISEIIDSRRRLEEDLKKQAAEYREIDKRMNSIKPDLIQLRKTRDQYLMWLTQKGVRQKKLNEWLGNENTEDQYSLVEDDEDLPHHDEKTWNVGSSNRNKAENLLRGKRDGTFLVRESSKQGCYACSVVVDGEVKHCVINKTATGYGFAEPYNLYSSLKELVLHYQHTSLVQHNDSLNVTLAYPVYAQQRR

## C[C@H](Nc1ccc2c(c1)OCCn1cc(N3C(=O)OC[C@H]3C(F)F)nc1-2)C(N)=O [GDC-0077, (2S)-2-[[2-[(4S)-4-(Difluoromethyl)-2-oxo-3-oxazolidinyl]-5,6-dihydroimidazo[1,2-d][1,4]benzoxazepin-9-yl]amino]propanamide]
[1]
  downstream PI3K pathway markers pAkt, pPRAS40, pS6RP: reduces downstream PI3K pathway markers
[2]
  degradation of mutant p110a: specifically degrades mutant p110a
[3]
  less potent biochemical inhibition of other Class I PI3Ks (selectivity): > 300 fold
[4]
  tumor growth: inhibits tumor growth
[5]; [21]
  patients achieving PRs: 5 patients
  patients achieving PRs, percentage: 25%
[5]; [22]
  patients achieving clinical benefit: 9 patients
  patients achieving clinical benefit, percentage: 45%
[6]
  apoptosis: induces apoptosis
  proliferation: inhibits proliferation
[7]
  potency in cells bearing mutant p110a over cells bearing wild-type p110a: increased potency
[8]
  anti-proliferative effect / relative viability: did not achieve the same anti-proliferative activity as the combination of the agents
[9]
  inhibition of PI3K-α: potent and selective inhibitor

## C[C@]12CC[C@@H]3c4ccc(O)cc4C[C@@H](CCCCCCCCC[S+]([O-])CCCC(F)(F)C(F)(F)F)[C@H]3[C@@H]1CC[C@@H]2O (stereo partly shown) [fulvestrant]
[10]
  efficacy in xenograft models: less efficacious than GDC-9545
[11]
  clinical benefit compared with anastrozole: benefit over anastrozole

## C[C@@H]1Cc2c([nH]c3ccccc23)[C@@H](c2c(F)cc(NC3CN(CCCF)C3)cc2F)N1CC(F)(F)CO [GDC-9545]
[12]
  potency of competition with estrogens for binding to the ER: low nanomolar potency
[13]
  anti-proliferative effect / relative viability: greater impact on cell viability versus estrogen withdrawal
[14]
  human steady-state total drug exposure relative to fulvestrant: approximately 10 fold
[15]
  anti-proliferative effect / relative viability: considerably more impactful than E2 withdrawal
[16]
  potency relative to fulvestrant: up to 10 times
[17]
  oral bioavailability: orally bioavailable
[18]
  nonclinical activity: robust nonclinical activity
[19]
  anti-proliferative effect / relative viability: reduced cell numbers relative to the control condition
[20]
  plasma protein binding compared with fulvestrant: lower plasma protein binding
[8]
  anti-proliferative effect / relative viability: reduced cell proliferation relative to control treated cells; also recorded: did not achieve the same anti-proliferative activity as the combination of the agents
